From publication PMC7300217, “Surfactin Like Broad Spectrum Antimicrobial Lipopeptide Co-produced With Sublancin From Bacillus subtilis Strain A52: Dual Reservoir of Bioactives” (Frontiers in Microbiology, 2020)
In brackets after ≈: the same amount, converted by molar mass.

Experiments:
B. subtilis MTCC 121 = experiment: MIC, microtiter plate dilution assay; format: cell-based, Bacillus subtilis; details: Bacillus subtilis, MTCC121; 5 × 10^5 CFU/ml, 37°C, OD600 after 24 h, triplicate
Procedure: (§1) The antimicrobial activity was tested by well diffusion assay as mentioned earlier ([Singh et al., 2014]). Strain A52 was grown for 24 h in 500 ml of nutrient broth (NB, Hi-media, India) using 1000 ml flask and subsequently cells were removed by centrifugation (10,000 rpm for 15 min at 4°C). Supernatant was filtered through 0.22 μm filter (Millipore, United States) to obtain cell-free fermented broth (CFB) that was used for antimicrobial assay (50 μl) against various indicator strains and the activity was measured as diameter of inhibition zone. […]
(§2) The minimum inhibitory concentration (MIC) of HPLC purified peptides was evaluated by using microtiter plate dilution assay. […] OD was measured at 600 nm after 24 and 48 h for bacteria and yeast, respectively, using ELISA microplate reader (Thermo, United States). MIC against phytopathogenic fungi was determined using 96-well microtiter plate assay ([Kaur et al., 2016]). […] The microplates were incubated at 25°C and readings were recorded at 600 nm after 48 h. […]

M. luteus MTCC 106 = experiment: MIC, microtiter plate dilution assay; format: cell-based, Micrococcus luteus; details: Micrococcus luteus, MTCC106; 5 × 10^5 CFU/ml, 37°C, OD600 after 24 h, triplicate
Procedure: as §1, §2

S. aureus MTCC 1430 = experiment: MIC, microtiter plate dilution assay; format: cell-based, Staphylococcus aureus; details: Staphylococcus aureus, MTCC1430; 5 × 10^5 CFU/ml, 37°C, OD600 after 24 h, triplicate
Procedure: as §1, §2

B. coagulans MTCC 492 = experiment: MIC, microtiter plate dilution assay; format: cell-based; details: Heyndrickxia coagulans, MTCC492; 5 × 10^5 CFU/ml, 37°C, OD600 after 24 h, triplicate
Procedure: (§3) The minimum inhibitory concentration (MIC) of HPLC purified peptides was evaluated by using microtiter plate dilution assay. The peptide concentration was estimated using BCA protein assay (Thermo Fisher Scientific, United States) method as described by manufacturer. Actively growing test strains (5 × 10^5 CFU/ml) were inoculated in a 96-well plate with different concentrations of the peptides and plates were incubated for 24–48 h at 37°C (final volume in each well is 200 μl). OD was measured at 600 nm after 24 and 48 h for bacteria and yeast, respectively, using ELISA microplate reader (Thermo, United States). MIC against phytopathogenic fungi was determined using 96-well microtiter plate assay ([Kaur et al., 2016]). In 96-well microplates, 100 μl of fungal spore suspension (1 × 10^5 spores/ml) prepared in potato dextrose broth (PDB, Hi-media, India) was mixed with100 μl of fresh PDB containing different concentrations of lipopeptide. Control well contained 100 μl of fungal spore suspension and 100 μl of only medium. The microplates were incubated at 25°C and readings were recorded at 600 nm after 48 h. The lowest concentration showing no growth was considered as MIC. Each test was done in triplicate and optical density (OD600) of peptide treated wells were compared with uninoculated wells (blank medium control).

B. cereus MTCC 430 = experiment: MIC, microtiter plate dilution assay; format: cell-based; details: Bacillus cereus, MTCC430; 5 × 10^5 CFU/ml, 37°C, OD600 after 24 h, triplicate
Procedure: as §3

S. oralis MTCC 2696 = experiment: MIC, microtiter plate dilution assay; format: cell-based; details: Streptococcus oralis, MTCC2696; 5 × 10^5 CFU/ml, 37°C, OD600 after 24 h, triplicate
Procedure: (§4) The antimicrobial activity was tested by well diffusion assay as mentioned earlier ([Singh et al., 2014]). Strain A52 was grown for 24 h in 500 ml of nutrient broth (NB, Hi-media, India) using 1000 ml flask and subsequently cells were removed by centrifugation (10,000 rpm for 15 min at 4°C). Supernatant was filtered through 0.22 μm filter (Millipore, United States) to obtain cell-free fermented broth (CFB) that was used for antimicrobial assay (50 μl) against various indicator strains and the activity was measured as diameter of inhibition zone. Test strains used were Staphylococcus aureus (MTCC 1430), Bacillus subtilis (MTCC 121), B. firmus (MTCC 488), B. licheniformis (MTCC 429), B. thuringiensis (MTCC 1953), Escherichia coli (MTCC 1610), Micrococcus luteus (MTCC 106), Steptococcus pyrogens (MTCC 1928), S. anginosus (MTCC 1929), S. oralis (MTCC 2696), S. mutans (MTCC 497), Candida albicans (MTCC 1637), C. albicans (MTCC 183), C. albicans (MTCC 227), C. tropicalis (MTCC 184), C. glabrata (MTCC 3019), C. haemulonii (MTCC 2766), and C. inconsplicue (MTCC 1074). The phytopathogenic fungi employed in this study were Alternaria brassicicola (MTCC 2102), Colletotrichum acutatum (MTCC 1037), and Fusarium moniliforme (MTCC 158). Clinical isolates of Candida were provided by National Culture Collection of Pathogenic Fungi (NCCPF), PGIMER, Chandigarh, India.
as §3

S. mutans MTCC 497 = experiment: MIC, microtiter plate dilution assay; format: cell-based; details: Streptococcus mutans, MTCC497; 5 × 10^5 CFU/ml, 37°C, OD600 after 24 h, triplicate
Procedure: as §4, §3

S. anginosus MTCC1929 = experiment: MIC, microtiter plate dilution assay; format: cell-based; details: Streptococcus anginosus, MTCC1929; 5 × 10^5 CFU/ml, 37°C, OD600 after 24 h, triplicate
Procedure: as §4, §3

S. pyogenes MTCC 1928 = experiment: MIC, microtiter plate dilution assay; format: cell-based; details: Streptococcus pyogenes, MTCC1928; 5 × 10^5 CFU/ml, 37°C, OD600 after 24 h, triplicate
Procedure: as §4, §3

E. coli MTCC 1610 = experiment: MIC, microtiter plate dilution assay; format: cell-based, Escherichia coli; details: Escherichia coli, MTCC1610; 5 × 10^5 CFU/ml, 37°C, OD600 after 24 h, triplicate
Procedure: as §1, §2

C. albicans MTCC 183 = experiment: MIC, microtiter plate dilution assay; format: cell-based, Candida albicans; details: Candida albicans, MTCC183; 5 × 10^5 CFU/ml, 37°C, OD600 after 48 h, triplicate
Procedure: as §4, §3

F. moniliforme MTCC 158 = experiment: MIC against phytopathogenic fungi, 96-well microtiter plate assay; format: cell-based, Fusarium moniliforme; details: Fusarium verticillioides, MTCC158; 1 × 10^5 spores/ml in PDB, 25°C, OD600 after 48 h, triplicate
Procedure: as §4
as §2, with “assay. The peptide concentration was estimated using BCA protein assay (Thermo Fisher Scientific, United States) method as described by manufacturer.” for “assay.”

[1] = system: C. rugos 470141 (clinical isolate); experiment: MIC, microtiter plate dilution assay; format: cell-based; details: 5 × 10^5 CFU/ml, 37°C, OD600 after 48 h, triplicate
Procedure: as §4, §3

[2] = system: C. krusei 440009 (clinical isolate); experiment: MIC, microtiter plate dilution assay; format: cell-based; details: Pichia kudriavzevii, 5 × 10^5 CFU/ml, 37°C, OD600 after 48 h, triplicate
Procedure: as §4, §3

[3] = system: C. inconsplicue MTCC 1074; experiment: MIC, microtiter plate dilution assay; format: cell-based; details: 5 × 10^5 CFU/ml, 37°C, OD600 after 48 h, triplicate
Procedure: as §4, §3

[4] = system: C. parasilosis 450030 (clinical isolate); experiment: MIC, microtiter plate dilution assay; format: cell-based; details: 5 × 10^5 CFU/ml, 37°C, OD600 after 48 h, triplicate
Procedure: as §4, §3

[5] = system: skin of BALB/c female mice; experiment: Skin irritation study (Draize test); format: in vivo; details: topical, about 1 cm^2 hairless dorsal skin, score 0 none, 1 slight, 2 moderate, 3 severe, mean
Procedure: Skin irritation potential of lipopetide based emulgel formulation was evaluated by carrying out skin irritancy test using 8 weeks old BALB/c female mice ([Draize et al., 1944]). Mice dorsal surface hair was removed without damaging the skin surface about 24 h prior to the experiment. Mice were divided into three groups (n = 3): […] Group II: plain gel (negative control); and Group III: […] emulgel. The formulation was topically applied to the hairless skin area (approximately 1 cm^2) and observations were recorded at 24, 48, and 72 h.

[6] = system: C. albicans 400054 (clinical isolate); experiment: MIC, microtiter plate dilution assay; format: cell-based, Candida albicans; details: Candida albicans, 5 × 10^5 CFU/ml, 37°C, OD600 after 48 h, triplicate
Procedure: as §4, §3

C. albicans MTCC 227 = experiment: MIC, microtiter plate dilution assay; format: cell-based, Candida albicans; details: Candida albicans, MTCC227; 5 × 10^5 CFU/ml, 37°C, OD600 after 48 h, triplicate
Procedure: as §4, §3

C. albicans MTCC 1637 = experiment: MIC, microtiter plate dilution assay; format: cell-based, Candida albicans; details: Candida albicans, MTCC1637; 5 × 10^5 CFU/ml, 37°C, OD600 after 48 h, triplicate
Procedure: as §4, §3

[7] = system: A. brassicicola MTCC 2102; experiment: MIC against phytopathogenic fungi, 96-well microtiter plate assay; format: cell-based, Alternaria brassicicola; details: Alternaria brassicicola, MTCC2102; 1 × 10^5 spores/ml in PDB, 25°C, OD600 after 48 h, triplicate
Procedure: as §1, §2

[8] = system: C. aurius 470126 (clinical isolate); experiment: MIC, microtiter plate dilution assay; format: cell-based; details: 5 × 10^5 CFU/ml, 37°C, OD600 after 48 h, triplicate
Procedure: as §4, §3

C. haemulonii MTCC 2766 = experiment: MIC, microtiter plate dilution assay; format: cell-based; details: Candidozyma haemuli, MTCC2766; 5 × 10^5 CFU/ml, 37°C, OD600 after 48 h, triplicate
Procedure: as §4, §3

[9] = system: C. haemulonii 470125 (clinical isolate); experiment: MIC, microtiter plate dilution assay; format: cell-based; details: Candidozyma haemuli, 5 × 10^5 CFU/ml, 37°C, OD600 after 48 h, triplicate
Procedure: as §4, §3

C. tropicalis MTCC 184 = experiment: MIC, microtiter plate dilution assay; format: cell-based; details: Candida tropicalis, MTCC184; 5 × 10^5 CFU/ml, 37°C, OD600 after 48 h, triplicate
Procedure: as §4, §3

C. glabrata MTCC 3019 = experiment: MIC, microtiter plate dilution assay; format: cell-based; details: Nakaseomyces glabratus, MTCC3019; 5 × 10^5 CFU/ml, 37°C, OD600 after 48 h, triplicate
Procedure: as §4, §3

[10] = system: C. glabrata SKSS ID (clinical isolate); experiment: MIC, microtiter plate dilution assay; format: cell-based; details: Nakaseomyces glabratus, 5 × 10^5 CFU/ml, 37°C, OD600 after 48 h, triplicate
Procedure: as §4, §3

[11] = system: C. kefyr 410004 (clinical isolate); experiment: MIC, microtiter plate dilution assay; format: cell-based; details: Kluyveromyces marxianus, 5 × 10^5 CFU/ml, 37°C, OD600 after 48 h, triplicate
Procedure: as §4, §3

[12] = system: C. tropicalis 420024 (clinical isolate); experiment: MIC, microtiter plate dilution assay; format: cell-based; details: Candida tropicalis, 5 × 10^5 CFU/ml, 37°C, OD600 after 48 h, triplicate
Procedure: as §4, §3

Compound: CC1(C)S[C@@H]2[C@H](NC(=O)[C@H](N)c3ccccc3)C(=O)N2[C@H]1C(=O)O [Ampicillin, reference compound]
- MIC (B. subtilis MTCC 121): 0.5 mg/L (≈ 1.43 µM)
- MIC (M. luteus MTCC 106): 0.2 mg/L (≈ 0.572 µM)
- MIC (S. aureus MTCC 1430): 0.25 mg/L (≈ 0.715 µM)
- MIC (B. coagulans MTCC 492): 0.5 mg/L (≈ 1.43 µM)
- MIC (B. cereus MTCC 430): 0.5 mg/L (≈ 1.43 µM)
- MIC (S. oralis MTCC 2696): 0.4 mg/L (≈ 1.14 µM)
- MIC (S. mutans MTCC 497): 0.4 mg/L (≈ 1.14 µM)
- MIC (S. anginosus MTCC1929): 0.25 mg/L (≈ 0.715 µM)
- MIC (S. pyogenes MTCC 1928): 0.03 mg/L (≈ 0.0859 µM)
- MIC (E. coli MTCC 1610): 1 mg/L (≈ 2.86 µM)

Compound: OC(Cn1cncn1)(Cn1cncn1)c1ccc(F)cc1F [Fluconazole]
- MIC (C. albicans MTCC 183): 20 mg/L (≈ 65.3 µM)
- MIC (F. moniliforme MTCC 158): 10 mg/L (≈ 32.7 µM)
- MIC [1]: 5 mg/L (≈ 16.3 µM)
- MIC [2]: 1 mg/L (≈ 3.27 µM)
- MIC [3]: 50 mg/L (≈ 163 µM)
- MIC [4]: 10 mg/L (≈ 32.7 µM)

Compound: CCCCCCCCCCCCOS(=O)(=O)[O-].[Na+] [Positive Control, sodium lauryl sulfate]
- Erythema score (n=3), 0 h [5]: 0
- Erythema score (n=3), 24h [5]: 3
- Erythema score (n=3), 48h [5]: 3
- Erythema score (n=3), 72h [5]: 3

Compound: C[C@@H]1[C@H](O)[C@@H](C)/C=C/C=C/C=C/C=C/C=C/C=C/C=C/[C@H](O[C@@H]2O[C@H](C)[C@@H](O)[C@H](N)[C@@H]2O)C[C@@H]2O[C@](O)(C[C@@H](O)C[C@@H](O)[C@H](O)CC[C@@H](O)C[C@@H](O)CC(=O)O[C@H]1C)C[C@H](O)[C@H]2C(=O)O [Amphotericin B, reference compound]
- MIC [6]: 5 mg/L (≈ 5.41 µM)
- MIC (C. albicans MTCC 227): 5 mg/L (≈ 5.41 µM)
- MIC (C. albicans MTCC 183): 5 mg/L (≈ 5.41 µM)
- MIC (C. albicans MTCC 1637): 5 mg/L (≈ 5.41 µM)
- MIC (F. moniliforme MTCC 158): 50 mg/L (≈ 54.1 µM)
- MIC [7]: 50 mg/L (≈ 54.1 µM)
- MIC [1]: 5 mg/L (≈ 5.41 µM)
- MIC [2]: 5 mg/L (≈ 5.41 µM)
- MIC [8]: 5 mg/L (≈ 5.41 µM)
- MIC (C. haemulonii MTCC 2766): 100 mg/L (≈ 108 µM)
- MIC [9]: 50 mg/L (≈ 54.1 µM)
- MIC (C. tropicalis MTCC 184): 35 mg/L (≈ 37.9 µM)
- MIC [3]: 10 mg/L (≈ 10.8 µM)
- MIC (C. glabrata MTCC 3019): 25 mg/L (≈ 27.1 µM)
- MIC [10]: 100 mg/L (≈ 108 µM)
- MIC [4]: 50 mg/L (≈ 54.1 µM)
- MIC [11]: 50 mg/L (≈ 54.1 µM)
- MIC [12]: 50 mg/L (≈ 54.1 µM)
